One molecule from ChEMBL document CHEMBL4007467, “Effects of 6-paradol, an unsaturated ketone from gingers, on cytochrome P450-mediated drug metabolism” (Bioorg Med Chem Lett, 2017) can be followed below.

Common to all, as to type: ADME
For series [1], the target named is T1, CYP1A2 (Homo sapiens, UniProt P05177).
T1 sequence (P05177 whole entry): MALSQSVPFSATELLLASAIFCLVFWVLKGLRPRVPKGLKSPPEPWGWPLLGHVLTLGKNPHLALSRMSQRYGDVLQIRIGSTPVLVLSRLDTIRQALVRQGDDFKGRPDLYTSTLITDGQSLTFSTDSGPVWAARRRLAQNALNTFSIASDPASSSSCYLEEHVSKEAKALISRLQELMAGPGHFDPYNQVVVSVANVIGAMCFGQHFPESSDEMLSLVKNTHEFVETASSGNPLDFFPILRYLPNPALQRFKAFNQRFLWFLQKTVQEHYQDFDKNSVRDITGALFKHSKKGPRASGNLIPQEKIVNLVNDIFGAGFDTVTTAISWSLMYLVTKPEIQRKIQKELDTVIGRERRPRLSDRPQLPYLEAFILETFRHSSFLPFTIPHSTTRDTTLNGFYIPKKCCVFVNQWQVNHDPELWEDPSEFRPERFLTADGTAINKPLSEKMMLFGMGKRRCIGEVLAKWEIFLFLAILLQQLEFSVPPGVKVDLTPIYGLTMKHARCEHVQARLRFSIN
The series is described as follows: Inhibition of CYP1A2 in human liver microsomes assessed as enzyme-mediated metabolite formation at 0.3 uM using phenacetin as substrate incubated for 5 mins followed by NADPH addition measured after 30 mins by LC-MS/MS analysis relative to control. Further details: scale not given: the % may be the effect or the level left. Particulars: probe phenacetin, read-out: Activity.

Series [2] has as its target T1, CYP1A2. The experiment in a line: Inhibition of CYP1A2 in human liver microsomes assessed as enzyme-mediated metabolite formation at 10 uM using phenacetin as substrate preincubated for 20 mins followed by substrate addition measured after 30 mins in presence of NADPH by LC-MS/MS analysis relative to control. The conditions noted are these: probe phenacetin, read-out: Activity. The arrangement: scale not given: the % may be the effect or the level left.

Series [3] has as its target T1, CYP1A2. The experiment in a line: Inhibition of CYP1A2 in human liver microsomes assessed as enzyme-mediated metabolite formation at 3 uM using phenacetin as substrate preincubated for 20 mins followed by substrate addition measured after 30 mins in presence of NADPH by LC-MS/MS analysis relative to control. Further details: scale not given: the % may be the effect or the level left. Particulars: probe phenacetin, read-out: Activity.

Series [4] has as its target T2, CYP2A6 (Homo sapiens, UniProt P11509).
T2 sequence (P11509 whole entry): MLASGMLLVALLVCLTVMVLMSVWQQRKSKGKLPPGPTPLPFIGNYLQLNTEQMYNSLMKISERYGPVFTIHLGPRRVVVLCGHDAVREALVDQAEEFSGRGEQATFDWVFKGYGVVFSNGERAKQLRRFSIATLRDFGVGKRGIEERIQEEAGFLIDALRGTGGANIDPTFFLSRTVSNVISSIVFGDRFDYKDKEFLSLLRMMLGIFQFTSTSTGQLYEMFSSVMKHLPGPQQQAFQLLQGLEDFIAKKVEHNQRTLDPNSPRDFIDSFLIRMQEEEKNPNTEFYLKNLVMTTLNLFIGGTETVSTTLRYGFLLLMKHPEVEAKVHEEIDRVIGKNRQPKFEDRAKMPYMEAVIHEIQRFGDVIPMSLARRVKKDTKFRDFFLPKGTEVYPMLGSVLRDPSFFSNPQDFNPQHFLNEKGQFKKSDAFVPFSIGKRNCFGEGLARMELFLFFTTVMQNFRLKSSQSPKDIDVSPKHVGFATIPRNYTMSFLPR
The experiment in a line: Inhibition of CYP2A6 in human liver microsomes assessed as enzyme-mediated metabolite formation at 30 uM using coumarin as substrate incubated for 5 mins followed by NADPH addition measured after 30 mins by LC-MS/MS analysis relative to control. The arrangement: scale not given: the % may be the effect or the level left. The conditions noted are these: probe coumarin, read-out: Activity.

The target of another series is T3, CYP2C8 (Homo sapiens, UniProt P10632).
T3 sequence (P10632 whole entry): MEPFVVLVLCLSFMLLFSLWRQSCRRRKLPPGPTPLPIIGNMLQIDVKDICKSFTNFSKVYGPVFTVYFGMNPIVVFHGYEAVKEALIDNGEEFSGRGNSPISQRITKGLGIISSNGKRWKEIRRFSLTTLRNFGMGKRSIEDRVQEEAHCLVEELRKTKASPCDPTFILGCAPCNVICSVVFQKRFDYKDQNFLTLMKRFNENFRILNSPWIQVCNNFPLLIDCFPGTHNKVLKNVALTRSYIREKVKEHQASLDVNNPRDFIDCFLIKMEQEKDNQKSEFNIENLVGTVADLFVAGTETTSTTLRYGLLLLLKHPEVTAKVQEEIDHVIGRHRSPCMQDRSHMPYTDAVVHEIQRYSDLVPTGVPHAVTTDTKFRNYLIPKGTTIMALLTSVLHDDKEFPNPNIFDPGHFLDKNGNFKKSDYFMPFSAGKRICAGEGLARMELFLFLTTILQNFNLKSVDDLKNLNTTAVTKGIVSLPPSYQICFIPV
The experiment in a line: Inhibition of CYP2C8 in human liver microsomes assessed as enzyme-mediated metabolite formation at 0.1 uM using paclitaxel as substrate preincubated for 20 mins followed by substrate addition measured after 30 mins in presence of NADPH by LC-MS/MS analysis relative to control. The arrangement: scale not given: the % may be the effect or the level left. Particulars: probe paclitaxel, read-out: Activity.

Another series concerns the target T4, CYP2B6 (Homo sapiens, UniProt P20813).
T4 sequence (P20813 whole entry): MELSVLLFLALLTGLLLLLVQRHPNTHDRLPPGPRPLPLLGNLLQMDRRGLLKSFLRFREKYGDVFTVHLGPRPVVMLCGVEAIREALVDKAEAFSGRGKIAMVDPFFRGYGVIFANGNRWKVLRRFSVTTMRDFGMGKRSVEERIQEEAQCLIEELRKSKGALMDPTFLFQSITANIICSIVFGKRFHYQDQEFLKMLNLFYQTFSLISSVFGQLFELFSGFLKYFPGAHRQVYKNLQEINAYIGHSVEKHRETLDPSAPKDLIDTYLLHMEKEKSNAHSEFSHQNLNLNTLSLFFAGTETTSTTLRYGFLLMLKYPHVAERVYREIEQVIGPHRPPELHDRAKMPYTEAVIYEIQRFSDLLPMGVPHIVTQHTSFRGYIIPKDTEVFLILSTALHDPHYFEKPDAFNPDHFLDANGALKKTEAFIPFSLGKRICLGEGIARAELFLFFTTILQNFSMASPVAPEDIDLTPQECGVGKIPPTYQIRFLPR
The experiment in a line: Inhibition of CYP2B6 in human liver microsomes assessed as enzyme-mediated metabolite formation at 3 uM using bupropion as substrate incubated for 5 mins followed by NADPH addition measured after 30 mins by LC-MS/MS analysis relative to control. The arrangement: scale not given: the % may be the effect or the level left. The conditions noted are these: probe bupropion, read-out: Activity.

Series [5] deals with T2, CYP2A6. The experiment in a line: Inhibition of CYP2A6 in human liver microsomes assessed as enzyme-mediated metabolite formation at 3 uM using coumarin as substrate incubated for 5 mins followed by NADPH addition measured after 30 mins by LC-MS/MS analysis relative to control. The arrangement: scale not given: the % may be the effect or the level left. The conditions noted are these: probe coumarin, read-out: Activity.

The target of series [6] is T2, CYP2A6. The series is described as follows: Inhibition of CYP2A6 in human liver microsomes assessed as enzyme-mediated metabolite formation at 30 uM using coumarin as substrate preincubated for 20 mins followed by substrate addition measured after 30 mins in presence of NADPH by LC-MS/MS analysis relative to control. Particulars: probe coumarin, read-out: Activity. The arrangement: scale not given: the % may be the effect or the level left.

The target of a further series is T5, Cytochrome P450 2B6 (Homo sapiens, UniProt P20813).
T5 sequence (P20813 whole entry): T4 sequence (P20813 whole entry)
The experiment in a line: Inhibition of human CYP2B6 using bupropion as substrate incubated for 5 mins followed by NADPH addition measured after 30 mins by LC-MS/MS analysis.

Turning to `CCCCCCCC(=O)CCc1ccc(O)c(OC)c1`, the activity at 0.5 h, 0.3 µM on CYP1A2 [1] was found to be 97.8%. On CYP1A2 [2], the activity at 0.5 h, 10 µM was 59%. In addition, the activity at 0.5 h, 3 µM was 76.5% on CYP1A2 [3], 65.7% on CYP2B6 and 80.8% at CYP2A6 [5]. Further, the values for the activity at 0.5 h, 30 µM at CYP2A6 [4] and on CYP2A6 [6] were 77.4% and 79.9%, respectively. For the same molecule, at CYP2C8, the activity at 0.5 h, 0.1 µM is 83.2%. This molecule also returned an IC50 against Cytochrome P450 2B6 of 6.2 µM. Moreover, the “inhibition (INH)” value on Cytochrome P450 2B6 (human, 0.5 h) was “Dose-dependent effect”.
